Measurements as given in publication PMC4861267 (PLoS ONE, 2016).
Where two headings read alike, the source gives them in different places.

Legend:
[1] = target: T1, histamine H2 receptor (Rattus norvegicus, UniProt P25102); experiment: Competition binding assay (displacement of ^3H-tiotidine)
T1 construct: endogenous in cells
Description: (§1) All test animals were used in accordance with the National Institutes of Health Guidelines for the Care and Use of Laboratory Animals and Permission for Use of Laboratory Animals 34401-1/2010/8 and U34401-12/2013/3 issued by the Administration of the Republic of Slovenia for Food Safety, Veterinary and Plant Protection to prepare primary astrocytes cultures from newborn not-treated rat. 3 day old rats were sacrificed by decapitation, followed by removing the brain cortices. Primary cultures of astrocytes were prepared and cultured as previously described. Cells were grown in high-glucose Dulbecco's modified Eagle's medium (DMEM), containing 10% fetal bovine serum (FBS), 1 mM pyruvate, 2 mM glutamine, and 25 μg/ml gentamycin in 95% air-5% CO2. Confluent cultures were shaken at 225 rpm overnight and the medium was changed the next morning; this was repeated a total of three times. After the third overnight shaking, the cells were trypsinized and cultured for 24 h in 10 μM cytosine arabinoside. After reaching confluence again the cells were subcultured into 12-well clusters and grown until becoming confluent again. The confluent cells were detached, washed twice in PBS, and cell sediment was stored at –70°C until used for the binding assay.
In the competition binding experiments, astrocyte cells were incubated together in the presence of different histaminergic ligands in the concentration range from 0.01 nM– 100 μM under the same incubation conditions as above. The concentration of ^3H-tiotidine used was 5 nM. The binding reaction was rapidly terminated and the bound ligand was separated from the unbound by vacuum filtration. The radioactivity trapped on the GF/C glass fiber filters was counted in a liquid scintillation counter (Microbeta, Perkin Elmer, USA).
(§2) The binding experiments were routinely carried out in triplicate and each experiment was repeated at least twice. The results are expressed as means ± SEM. The binding parameters (KD, Bmax, and IC50) were calculated by a non-linear regression method using software Prism6 version 6.00, GraphPad Software Inc. (San Diego, USA). A comparison of the data among the groups was carried out using Student`s unpaired t-test with Welch correction, where two groups of data were compared. Differences were considered significant at p < 0.05.

[2] = target: T1, histamine H2 receptor; experiment: ^3H-tiotidine saturation binding assay; conditions: cultured neonatal rat astrocytes; for Kd: read-out: equilibrium dissociation constant (KD)
Description: as §1
0.1 mg of astrocyte cell protein was incubated for 15 minutes at 25°C in 0.15M Na^+/K^+ -phosphate buffer (pH 7.4) or in 0.15M Na^+/K^+ -phosphate buffer made using D2O instead of miliQ water (pH 7.4) in a total volume of 0.25 mL with the indicated concentrations of ^3H-tiotidine (1–15 nM), with a specific activity of 82.2 Ci/mmol. Specific binding represented the difference between total and non-specific binding (binding in the presence of 1 μM cimetidine).
as §2

[3] = MP2/6–31++G(2d,2p) and Langevin dipole calculated value; cited from earlier work
[4] = regular phosphate buffer (control)

T1 sequence (P25102 whole entry): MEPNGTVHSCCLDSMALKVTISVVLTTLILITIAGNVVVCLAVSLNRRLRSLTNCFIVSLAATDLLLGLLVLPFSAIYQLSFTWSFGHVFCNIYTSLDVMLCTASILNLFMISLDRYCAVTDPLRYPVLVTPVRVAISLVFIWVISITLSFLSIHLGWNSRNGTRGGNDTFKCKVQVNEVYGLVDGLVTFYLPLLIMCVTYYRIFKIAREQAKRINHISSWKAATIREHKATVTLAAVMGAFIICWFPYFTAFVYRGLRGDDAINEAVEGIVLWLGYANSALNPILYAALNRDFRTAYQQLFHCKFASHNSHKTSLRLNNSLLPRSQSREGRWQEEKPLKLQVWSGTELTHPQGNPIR

In the case of [2H]N([2H])CCc1cn([2H])cn1 [deuterated histamine], the binding free energy ([1]; deuterated (D), from measured value 16 nM) is reported as “–10.59 kcal/mol”.
With CN=C(NC#N)NCCSCc1csc(N=C(N)N)n1 [^3H-tiotidine] the “maximal binding capacity (Bmax)” value ([2]; deuterated medium (D2O)) was 17.1 ± 2.7 fmol/mg protein, the Kd ([2]; deuterated medium (D2O)) was 7.4 ± 2.4 nM and the “maximal binding capacity (Bmax)” value [2, 4] was 18.6 ± 1.7 fmol/mg protein. For the same compound, the Kd [2, 4] was 4.7 ± 1 nM.
For NCCc1c[nH]cn1 [histamine], the hydration free energy [3] is listed as “–68.6 kcal mol^–1”, the binding free energy ([1]; control (H), from measured value 56 nM) is listed as “–9.86 kcal/mol” and the IC50 ([1]; control (H), read-out: reported measured value (ligand binding constant)) is listed as 56 nM. For the same compound, the “ΔEINTER(exp) ΔΔE(H2O–D2O); experimental difference in binding free energy upon deuteration” value ([1]; ΔGBIND(H→D) = −RT ln(KD/KH)) was 0.73 kcal mol^–1.
Compound Cc1ncc(CCN)[nH]1 [2-methylhistamine] has an IC50 [1] of 4.17 nM.
For NCCc1c[nH]cn1 [deuterated histamine], the IC50 ([1]; deuterated (D), read-out: reported measured value (ligand binding constant)) was 16 nM.
